This note sets out measurements from ChEMBL document CHEMBL2021839, “Pyridine alkaloids from Senna multijuga as acetylcholinesterase inhibitors” (J Nat Prod, 2012).

Assay [1] concerns the target Acetylcholinesterase (Electrophorus electricus) (UniProt O42275). The experiment in a line: Inhibition of electric eel AChE assessed as minimum concentration required to inhibit enzyme activity after 20 mins by TLC bioautographic assay.
Assay [2] has the same target. The assay can be described thus: Inhibition of electric eel AChE using acetylthiocholine as substrate at 350 uM by Ellman's method.

Molecules are shown by their SMILES.

Sequence of Acetylcholinesterase (Electrophorus electricus) (O42275 24-633 limits assumed): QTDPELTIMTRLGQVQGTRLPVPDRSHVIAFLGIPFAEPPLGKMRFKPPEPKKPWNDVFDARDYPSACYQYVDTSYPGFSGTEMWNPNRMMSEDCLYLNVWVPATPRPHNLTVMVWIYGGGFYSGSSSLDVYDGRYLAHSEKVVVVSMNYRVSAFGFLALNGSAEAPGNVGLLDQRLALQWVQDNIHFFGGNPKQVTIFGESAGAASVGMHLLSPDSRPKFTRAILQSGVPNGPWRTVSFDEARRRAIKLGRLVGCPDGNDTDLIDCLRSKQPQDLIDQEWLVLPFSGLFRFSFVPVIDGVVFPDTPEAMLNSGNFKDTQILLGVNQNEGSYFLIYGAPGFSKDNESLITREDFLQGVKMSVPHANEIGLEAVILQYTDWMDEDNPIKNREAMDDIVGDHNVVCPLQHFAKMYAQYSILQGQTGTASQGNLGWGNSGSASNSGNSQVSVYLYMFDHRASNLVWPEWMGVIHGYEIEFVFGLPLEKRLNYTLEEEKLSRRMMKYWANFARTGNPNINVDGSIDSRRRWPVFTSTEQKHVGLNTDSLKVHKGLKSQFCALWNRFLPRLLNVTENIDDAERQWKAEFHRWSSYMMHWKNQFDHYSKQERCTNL

As for `CNC(=O)Oc1ccc2c(c1)[C@]1(C)CCN(C)[C@@H]1N2C`, in assay [1], the MIC came to 0.1 µg. Besides, in assay [2], the inhibition turned out to be 94%.
Turning to `COC(=O)CCCc1ccc(O)c(C)n1`, the MIC in assay [1] was 3 µg. The compound further displayed an inhibition in assay [2] of 40%.
Taken in the same sequence, the figures for `CCCCC(O)CCCCCCCc1ccc(O)c(C)n1` (racemic) were 1.5 µg and 19%.
For `CCCCCC(O)CCCCCCc1ccc(O)c(C)n1` (racemic), in that order: 0.8 µg and 52%.
Consider `Cc1nc(CCCCCCC(O)CCCCCO)ccc1O` (racemic), for which the MIC in assay [1] was determined as 1.5 µg. In assay [2], this compound registered an inhibition of 51%.
For `Cc1nc(CCCCCCCC(O)CCCCO)ccc1O` (racemic), in that order: 6 µg and 28%.
